The test system of data set [1] is HCV replicon in MH-14 cells. To be noted: cited from earlier work; for HCV RNA accumulation inhibited: Northern blot and quantitative RT-PCR, MH-14 cells.
Data set [2] concerns HCV replicon in Huh-9-13 cells. The data set can be described thus: HCV replicon clearance and rebound in Huh-9-13 cells. It is filed as cell-based. To be noted: 0.5 or 1 μg/ml for 7 consecutive passages, then G418 1000 μg/ml for 2 passages; FIG. 3.
Description: Assays used Huh-9-13 cells, human hepatoma cells (Huh-7) (Lohmann et al., Science 285(5424), (1999), 110-113) Cells were grown in the usual complete medium DMEM without G418 pressure.
RT-PCR were performed on extracts of viral RNA of samples taken at different passage points. The forward and reverse primers used were 5′-[sequence]-3′ and 5′-[sequence]-3′, respectively. The fluorogenic probe was 5′-[sequence]-3′. As an internal control, a plasmid containing part of the neomycin phosphotransferase gene sequence was used. Results were analysed and expressed as a quantity of replicon RNA (ng) per 1'000 cells and used to draft a graph.
A short description of data set [3]: Initial phase I clinical studies, safety of oral doses. It is filed as in vivo. As to conditions: oral doses of 50 to 1600 mg; not dose-related. How it is done: Initial phase I clinical studies were carried out to assess the safety of oral doses of [D-MeAla]^3-[EtVal]^4-CsA, and to determine the pharmacokinetic profile and safety profile of the drug substance. […] These side effects were not dose-related.

In data set [4] the test system is Jc1-Luc virus (full-length chimeric genome between HCV strains J6 and JFH1). Put plainly: Antiviral luciferase assay in hepatoma cells infected with recombinant HCV. It is filed as cell-based. To be noted: infected Huh-7-Lunet and Huh-7.5 cells, 72 hours, FIGS. 1 and 2.
Excerpt: The method used hepatoma cells that had been infected with an infectious full length chimeric HCV construct or the same virus that was modified to carry a luciferase receptor gene.
Infectious HCV viruses of full-length chimeric genome between HCV strains J6 and JFH1 (Jc1) were used to inoculate the hepatoma cells of the assays. The construct of Jc1 virus was also modified to obtain a bicistronic genome carrying a luciferase reporter gene (Jc1-Luc).
Assays used either Huh-7-Lunet or Huh-7.5 cells (Lohmann et al., Science 285(5424), (1999), 110-113). Cells were grown in Dulbecco's modified Eagle's Medium (DMEM; Gibco) supplemented with 10% heat-inactivated fetal bovine serum (FCS) (Integro), 1× non-essential amino acids (Gibco), 100 IU/ml penicillin (Gibco), 100 μg/ml streptomycin (Gibco) or 25 μg/ml hygromycin (Gibco) for Huh-mono cells at 37° C. and 5% CO2. For antiviral (replication) assays, Huh-7-Lunet and Huh-7.5 cells were seeded at a density of 2×104 or 4×10^4 cells per well of a 12-well plate. […]
The inhibition of viral replication were estimated by luciferase assay. […] Firefly luciferase activity was measured according to Krieger et al. (J Virol, 75(10), (2001), 4614-4624). […] Finally, luminescence was measured by using a Lumat LB9507 luminometer (Berthold) for 20 samples.
Data set [5] concerns the target T1, human recombinant cyclophilin A (Homo sapiens, UniProt P62937).
T1 construct: purchased Sigma
The data set can be described thus: PPlase activity of cyclophilin A, tight binding inhibitor fit (Garcia-Echverria et al.). The data set is classed as biochemical. To be noted: for Et (total enzyme concentration): fit parameter of tight binding equation. Here is the method:
Commercial human recombinant cyclophilin A (Sigma) was used in the assays. PPlase activity of cyclophilins was determined using a chymotrypsin-coupled spectrophotometric assay according to Garcia-Echverria et al. (BBRC, 191, (1993), 70-75). This method is based on the high trans selectivity of chymotrypsin for peptides of the type N-succinyl-ala-ala-pro-phe-p-nitroanilide. The peptides cleavage liberated the para-nitroaniline moiety that could be detected and quantitated at 390 nm. The hydrolysis of the cis form was limited by the rate of cis-trans isomerisation carried out by cyclophilin A. The peptide was made up in a solution of […] LiCl in 2,2,2-trifluoroethanol at 470 mM to enhance the cis conformer peptides population. The assay was performed on the split beam spectrophotometer and the water bath was set at 5° C. Cyclophilin A (7500 pmol/mg total enzyme concentration; Sigma) were dissolved at 20 nM in a buffer (35 mM HEPES and 0.26 mg/ml chymotrypsin (specific activity 50 units/mg), pH 7.8 with KOH) and were incubated for 6 minutes at room temperature followed by 54 minutes in the water bath. […] Then 3.5 ml of the incubated cyclophilin was added to the sample cuvette. […] Peptide was added at 25 μM to initiate the reaction and the change in absorbance was monitored at 10 data points per second. As a control, rates were also determined for a parallel reaction that lacked cyclophilin. These blank rates of peptide hydrolysis (i.e. in the absence of cyclophilin) were subtracted from rates in the presence of cyclophilin A.
The initial rates obtained from the PPlase assays were analysed by first order regression analysis by using first order transformation of the traces of the time course of the change in the absorbance at 390 nm. Total enzyme concentration (Et), the inhibitor dissociation constant (Ki) and the rate constant for the rate limiting reaction was calculated with the software FigSyS (2003, Biosoft) by fitting the data obtained from the regression analysis in the tight binding inhibitor multiprotein equation.
v=k*Et*P−k*(−b−sqrt(b*b−4*c))/2
where b is defined as b=−(Et*P+I+Ki) and c is c=Et*P*I. Once Et, Ki and k were calculated by the computer for a given set of data, a graphic representation of the data was plotted and the line fitted to the points assuming tight inhibitor binding to a single protein, defined by the following equations:
v=K*Et*P−K(B−sqrt(B*B−4*C))/2
where B=Et*P+I+Ki and C=Et*P*I.

A short description of data set [6]: MTT assay of cytostatic/cytotoxic effect in Huh 5-2 cells. As to conditions: human. An excerpt:
Cell density and cytostatic effects were estimated in parallel cultures in regular 96-well plates (Beckton-Dickinson) using the MTT assay (CellTiter 96® AQueous Non-Radioactive Cell Proliferation Assay, Promega). In this assay, 3-(4,5-dimethylthiazol-2-yl)-5-(3-carboxymethoxy-phenyl)-2-(4-sulfophenyl)-2H-tetrazolium (MTS) is bioreduced to a formazan that is quantitated at 498 nm in a plate reader. Formazan production is directly correlated with number of life cells.
(§1) Results from these experiments permitted calculation of EC50 for the different cyclosporins, which is the effective concentration required to inhibit HCV replicon replication by 50%, and of CC50, which is the concentration required that inhibits the proliferation of exponentially growing cells by 50%, and a selectivity index SI, which is the ratio between CC50 and EC50.

The next data set concerns CD4^+ PBMCs. Put plainly: Mixed lymphocyte reaction, [3H]-thymidine incorporation. The data set is classed as cell-based. As to conditions: for immunosuppressive activity (interpretation of Table 2): mixed lymphocyte reaction; for % Stimulation (relative): cyclosporin 1 μg/ml, five days. How it is done:
In this assay, cyclosporins were dissolved in ethanol (10 mg/ml). Freshly isolated CD4^+ PBMCs from two healthy donors were mixed subsequent to inactivation by irradiation of one of the populations (stimulator cells; S). […] R) was determined by [^3H]-thymidine incorporation. The assay was conducted reciprocally with the two cell populations, each being inactivated and stimulated in turn. Stimulation (%) of responder cells was calculated by the formula: […] Sample refers to a mixture of stimulator and responder cells. Background represents a control in which only stimulator cells are mixed.
(In general: Incorporation of labelled thymidine or its analogues reports DNA synthesis.)

The test system of data set [7] is HCV replicon in Huh 5-2 cells. To be noted: EC50 derived from RNA titers by quantitative RT-PCR; asterisk = lower of two independently determined values. Here is the method:
(§2) Assays used Huh 5-2 cells that contained a bicistronic RNA encoding a firefly luciferase-ubiquitin-neomycin phosphotransferase fusion protein and HCV proteins NS3-5. The viral sequences originated from an HCV virus of genotype 1b. Cells were cultured in RPMI 1640 medium (Gibco) supplemented with 10% fetal calf serum, 2 mM glutamine (Life Technologies), 1× non-essential amino acids (Life Technologies), 100 u/ml penicillin, 100 μg/ml streptomycin and 250 μg/ml G418 (Geneticin, Life Technologies) at 37° C. and 5% CO2. For antiviral (replication) assays, cells were seeded at a density of 7000 cells/well in 96-well View Plates™ (Packard) in the same medium except for G418. After a 24-h incubation, medium was removed, serial dilutions of test compounds in medium were added, and cells were incubated for an additional 72 h.
The fluorogenic probe was 5′-[…]-3′.
as §1

Data set [8] deals with luciferase-containing HCV minireplicon in Huh 5-2 cells. How it is done:
as §2
Antiviral effects were estimated either by luciferase assay or quantitative RT-PCR. To carry out luciferase assays, medium was removed, and cells were washed with PBS. Subsequent to lysis in 50 μl of Glo-lysis buffer (Promega) for 15 min, 50 μl of Stead-Glo Luciferase Assay Reagent (Promega) were added to cell lysates. Luciferase activity was measured using a luminometer, and the signal from each test well was expressed as a percentage of the signal measured in wells of cultures not exposed to a test compound. […]

Converted amounts (≈) assume the structure as drawn.

T1 sequence (P62937 whole entry): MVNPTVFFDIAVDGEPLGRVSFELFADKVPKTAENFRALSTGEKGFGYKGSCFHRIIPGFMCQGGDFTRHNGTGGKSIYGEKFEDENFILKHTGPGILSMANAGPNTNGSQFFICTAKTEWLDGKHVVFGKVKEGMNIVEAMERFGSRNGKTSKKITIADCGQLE

`C/C=C/C[C@@H](C)C(=O)[C@H]1C(=O)N[C@@H](C(C)C)C(=O)N(C)CC(=O)N(C)[C@@H](CC(C)C)C(=O)N[C@@H](C(C)C)C(=O)N(C)[C@@H](CC(C)C)C(=O)N[C@@H](C)C(=O)N[C@H](C)C(=O)N(C)[C@@H](CC(C)C)C(=O)N(C)[C@@H](CC(C)C)C(=O)N(C)[C@@H](C(C)C)C(=O)N1C` [PSC 833]: the “HCV RNA accumulation inhibited” value in data set [1] is “not”.

For orientation: CC50 means the concentration giving 50% cytotoxicity. A lower CC50 goes with harm at low concentration. On to `C/C=C/C[C@@H](C)[C@@H](O)[C@H]1C(=O)N[C@@H](CC)C(=O)N(C)[C@H](C)C(=O)N(CC)[C@@H](C(C)C)C(=O)N[C@@H](C(C)C)C(=O)N(C)[C@@H](CC(C)C)C(=O)N[C@@H](C)C(=O)N[C@H](C)C(=O)N(C)[C@@H](CC(C)C)C(=O)N(C)[C@@H](CC(C)C)C(=O)N(C)[C@@H](C(C)C)C(=O)N1C` [[D-MeAla]^3-[EtVal]^4-CsA], for which, in data set [2], the “outcome of treated cultures in the presence of G418 (rebound phase)” value was “the cultures died”. Further, the side effects entry in data set [3] was “Mild and short-lived side effects were observed including nausea, vomiting, abdominal pain, mild headaches”. Further, in [4], the antiviral activity entry is on record as “dose-dependent antiviral activity”. The “k (rate constant for the rate limiting reaction)” value in [5] (cyclophilin A) amounted to 0.16 ± 0.0074 s⁻¹. In data set [5], the “Et (total enzyme concentration)” value came to 7500 pmol/mg. For the same molecule, in [6] (Huh 5-2 cells), the CC50 was above 27 µg/mL. In addition, the “immunosuppressive activity (interpretation of Table 2)” value with CD4^+ PBMCs is “essentially devoid of immunosuppressive activity”.

As a reminder, the Ki is the dissociation constant of the complex between target and ligand, obtained from inhibition or displacement. Turning to `C/C=C/C[C@@H](C)[C@@H](O)[C@H]1C(=O)N[C@@H](CC)C(=O)N(C)CC(=O)N(C)[C@@H]([C@@H](C)CC)C(=O)N[C@@H](C(C)C)C(=O)N(C)[C@@H](CC(C)C)C(=O)N[C@@H](C)C(=O)N[C@H](C)C(=O)N(C)[C@@H](CC(C)C)C(=O)N(C)[C@@H](CC(C)C)C(=O)N(C)[C@@H](C(C)C)C(=O)N1C` [[MeIle]^4-CsA], in data set [7], the SI values was found to be 73. For the same molecule, the “effectiveness in reducing HCV RNA titer” value in data set [1] (compared with CsA) is “about equally as effective as CsA”. In addition, the “k (rate constant for the rate limiting reaction)” value in [5] (cyclophilin A) amounted to 0.17 ± 0.0068 s⁻¹. Also, the Ki in [5] (cyclophilin A, inhibitor 2-50 nM) amounted to 2.11 ± 0.32 nM. The “Et (total enzyme concentration)” value in [5] came out at 7500 pmol/mg. Moreover, the “EC50 (μg/ml) +/− Std. Dev.” value in data set [8] (luciferase assay, Huh 5-2 cells, 72 h) amounted to 0.22 µg/mL (≈ 0.183 µM). Besides, the Selectivity index in data set [8] (ratio between CC50 and EC50, luciferase and MTT assays) turned out to be 64. Further, in data set [6], the CC50 came out at 14 µg/mL (≈ 11.6 µM). The “% Stimulation (relative)” value was 84% in the data set on CD4^+ PBMCs (co-culture R1 × S2) and 75% in the data set with CD4^+ PBMCs (co-culture R2 × S1). Also, in the data set on CD4^+ PBMCs, the “immunosuppressive activity (interpretation of Table 2)” value is given as “essentially devoid of immunosuppressive activity”.

As to Cyclosporin A [CsA], the “HCV RNA titer reduction” value in data set [1] (1 μg/ml, 7-day exposure) is “about 200 fold”. For the same molecule, the “HCV RNA accumulation inhibited” value in [1] is “inhibited”. In addition, the antiviral activity result in data set [4] is recorded as “dose-dependent antiviral activity”. Also, the “k (rate constant for the rate limiting reaction)” value in data set [5] (cyclophilin A) was 0.17 ± 0.0069 s⁻¹. Moreover, in data set [5], the “Et (total enzyme concentration)” value came to 7500 pmol/mg.
